According to publication PMC6010071, “Blocking oestradiol synthesis pathways with potent and selective coumarin derivatives” (Journal of Enzyme Inhibition and Medicinal Chemistry, 2018):
Like-named read-outs stand apart in the source and are kept apart here.

Assays:
[1] = target: T1, MAO-B (Homo sapiens, UniProt P27338); experiment: MAO-B inhibition, continuous spectrophotometric assay; assay type: biochemical; conditions: single point, read at 2 h
T1 construct: purchased Sigma-Aldrich (St. Louis, MO)
T1 sequence (P27338 1-520): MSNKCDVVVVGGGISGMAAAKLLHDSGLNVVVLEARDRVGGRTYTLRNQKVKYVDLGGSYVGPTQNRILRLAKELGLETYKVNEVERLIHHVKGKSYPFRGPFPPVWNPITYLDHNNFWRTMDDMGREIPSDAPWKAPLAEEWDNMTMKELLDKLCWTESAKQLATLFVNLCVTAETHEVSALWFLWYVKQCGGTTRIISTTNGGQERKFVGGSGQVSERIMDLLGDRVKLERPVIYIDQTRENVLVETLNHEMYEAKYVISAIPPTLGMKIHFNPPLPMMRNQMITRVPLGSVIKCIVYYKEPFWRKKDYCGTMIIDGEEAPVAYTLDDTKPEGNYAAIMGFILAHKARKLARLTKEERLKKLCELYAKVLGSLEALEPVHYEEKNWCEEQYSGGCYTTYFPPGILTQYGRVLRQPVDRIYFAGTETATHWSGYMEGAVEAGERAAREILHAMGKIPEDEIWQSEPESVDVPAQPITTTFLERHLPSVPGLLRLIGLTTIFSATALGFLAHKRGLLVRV
Method: The protocol of continuous spectrophotometric assay by Holt et al. was first used to determine the activity of the proteins. […] The protein was first incubated for 30 min at 37 °C in the chromogenic solution and then the substrate tyramine was introduced at 0.5 mM final plate concentration completing the assay volume. […] The assay should produce absorbance change of ∼0.35[23]. […] These protein concentrations were selected to be used to analyse the molecules 1–9. The analysis conditions followed the above-described assay protocol[23] and the activity of tested molecules was measured at 100 µM for MAO-A and at 10 µM for MAO-B. The analysis was performed as single point measurements and the signal was read by the same instrument at the expected assay maximum indicated by the activity measurements, at 30 min for MAO-A and at 2 h for MAO-B, respectively. […] The observed activity was calculated as inhibition percentage (Table 1).

[2] = target: T1, MAO-B; experiment: as above; assay type: biochemical
[3] = 10 µM, read-out: MAO-B inhibition at 10 µM
[4] = duplicated dilution series, read-out: MAO-B inhibition pIC50 (converted)
[5] = restated from pIC50 above 6, read-out: MAO-B inhibition IC50

| inhibition at 10 µM [1, 3] [%] | IC50 [2, 4] [nM] | IC50 [2, 5] [nM] | Compound | also measured |
| --- | --- | --- | --- | --- |
| 48 | – | – | COc1ccc(-c2cc3cccc(O)c3oc2=O)cc1 [Compound 1, 8-hydroxy-3–(4-methoxyphenyl)-2H-chromen-2-one] | – |
| – | – | – | O=c1oc2ccc(O)cc2cc1-c1ccc(O)cc1 [Compound 2, 6-hydroxy-3–(4-hydroxyphenyl)-2H-chromen-2-one] | inhibition at 10 µM ([1]; read-out: MAO-B inhibition at 10 µM, 10 µM): 16% |
| 50 | – | – | O=c1oc2ccccc2cc1-c1cccc(O)c1 [Compound 3, 3–(3-hydroxyphenyl)-2H-chromen-2-one] | – |
| 64 | – | – | O=c1oc2ccc(Cl)cc2cc1-c1cccc(O)c1 [Compound 4, 6-chloro-3–(3-hydroxyphenyl)-2H-chromen-2-one] | – |
| – | 407 | < 1000 | COc1ccc2cc(-c3ccc(O)c(F)c3)c(=O)oc2c1 [Compound 6, 3–(3-fluoro-4-hydroxyphenyl)-7-methoxy-2H-chromen-2-one] | – |
| – | 851 | < 1000 | COc1ccc2oc(=O)c(-c3ccc(O)c(F)c3)cc2c1 [Compound 7, 3–(3-fluoro-4-hydroxyphenyl)-6-methoxy-2H-chromen-2-one] | – |
